Laboratory results taken from US20080015224A1, “Nitroxide superoxide dismutase mimetics to treat extracellular superoxide dismutase deficiencies” (priority 2006, published 2008).
“Also recorded” adds a separate entry of the source.

What was measured:
[1] = test system: O2−. generated by xanthine plus xanthine oxidase; test: Inhibition of O2−. generated by xanthine-xanthine oxidase in vitro (SOD mimetic activity, lucigenin chemiluminescence); type: biochemical; settings: for Maximum inhibition, %: O2−. generated by xanthine-xanthine oxidase in vitro, means ± SE, 5 studies; for O2−. generated by a xanthine-xanthine oxidase reaction extinguished: tested in PBS at 10^−4 M
Description: The SOD activities of Ns were evaluated in vitro for their efficacy in dampening O2^−. generated by xanthine (25 μmol/l) plus xanthine oxidase (9 IU/ml). Their lipid solubility was assessed by shaking the Ns in a 50:50 mixture of PBS (Ambion, Austin, Tex.) and chloroform (CHCl3; EM Science, Gibbstown, N.J.), taking an aliquot of the PBS phase, evaporating the CHCl3phase to dryness, reconstituting it in PBS, and assessing the SOD activities in the two solutions. O2^−. was assessed by chemiluminescence with 5 μM lucigenin (AutoLumatPlus LB 953; EG&G, Berthold, Germany). The reduction in the stable peak value for chemiluminescence for each N, relative to vehicle, defined the SOD mimetic activity.
SOD activity by the nitroxides was assessed in vitro (Table 1). […] The ratio of the activity that partitioned into CHCl3 compared with PBS was examined.

[2] = test system: spontaneously hypertensive rat (SHR); test: Acute antihypertensive response (MAP, HR) to graded intravenous doses in anesthetized SHR; type: in vivo; settings: for acute change in MAP and HR: graded intravenous doses (nitroxides 17-270 μmol/kg; SOD 34-540 U/kg)
Description: Experiments were approved by the Georgetown University Animal Care and Use Committee. Male SHR weighing 250-350 g (Taconic, Germantown, N.Y.) were anesthetized with thiobutabarbital (Inactin; Sigma, St. Louis, Mo.) (10 mg/100 g) after halothane (Halocarbon Laboratories, River Edge, N.J.) induction. Rats received 0.9% NaCl at 2 ml/h IV up to the time of receiving drugs to maintain euvolemia. A femoral artery was cannulated with polyethelene (PE)-50 tubing connected to a digital blood pressure analyzer (Micro-Med, Louisville, Ky.). Animals were equilibrated for 45 min. Thereafter, a nitroxide (17 μmol/kg) was infused intravenously over 10 s. The mean arterial pressure (MAP) and heart rate (HR) were recorded over the first 5 min and at 10 and 15 min. This was followed by doses of 54, 72, 174, and 270 μmol/kg under similar conditions. The same protocol was followed with each nitroxide: T, 4-oxo-tempo (OT), 4-amino-tempo (AT), 3-carboxy-peroxyl (3-CTPY) (Aldrich, Milwaukee, Wis.), 3-carbomyl-proxyl (3-CP) (Sigma), and 4-trimethylammonium-2,2,6,6,-tetramethylpiperidine-1-oxyl iodide (CAT-1) (Molecular Probes, Eugene, Oreg.) (FIG. 3). Doses of bovine Cu/Zn SOD (MW 32,500; Oxis Research, Portland, Oreg.) were selected that had equivalent SOD mimetic activity in vitro to the doses of T used for intravenous studies: 34, 110, 140, 260, 350, and 540 U/kg. SOD injection followed a similar protocol to the nitroxides and was compared with vehicle-injected rats. Additional rats received injections of previously boiled SOD as a further control group. Six rats were studied in each group.
The mean±SE changes in MAP and HR were calculated from the individual dose-response relations. The responsiveness was the maximum effect, and the sensitivity was the expected dose for ED50. Data were analyzed by ANOVA with post hoc testing by the Dunnett test, where appropriate. Statistical significance was taken as P<0.05.

[3] = test system: O2−. generated by xanthine plus xanthine oxidase; test: Inhibition of O2−. generated by xanthine-xanthine oxidase in vitro (SOD mimetic activity, lucigenin chemiluminescence); type: biochemical; settings: means ± SE
[4] = test system: cremasteric microvessels in the anesthetized mouse; test: In vivo EDRF (acetylcholine-induced vasodilation) responses of cremasteric microvessels; settings: 10^−4 M tempol in superfusate; EC-SOD −/− mice and mice infused with Ang II 400 ng·kg^−1·min^−1 sc × 12 days
Description: FIG. 18: In vivo EDRF responses of cremasteric vessels are impaired by EC-SOD knockout or prolonged angiotensin II infusion but are restored by superfusion of tempol. Mean±SEM (n=c6 per group). Ang II infusion at 400 ng·kg^−1·min^−1 sc×12 days. T, 10^−4 M tempol in superfusate. Basal diameter 39±0.4 μm (similar in each group). Compared to EC-SOD +/+; *, p<0.05. Compared to vehicle infusion: †, p<0.05. All effects of tempol, p<0.005.
Our current studies have shown that the SOD mimetic drug tempol, when superfused over cremasteric microvessels in the anesthetized mouse, increases that acetylcholine-induced vasodilation response. This effect of acetylcholine is reduced in the EC-SOD (−/−) mouse and in normal and EC-SOD (−/−) mice infused for 12 days with Ang II which causes oxidative stress that bioinactivates nitric oxide which is a mediator of this response. […] This is important since acetylcholine-induced vasodilation is a test of endothelium-dependent relaxation (EDR). Defects in EDR are related to oxidative inactivation of nitric oxide and underlie many CVD risk factors. Thus defects in EDR could be the focus for abnormal vascular responses and increased CVD events in subjects with the R213G SNIP of EC-SOD.

[5] = test system: mesenteric resistance arteries (MRAs) from EC-SOD −/− and +/+ mice; test: Superoxide as ethidium:DHE ratio (E/D) in dihydroethidium-loaded mesenteric resistance arteries; settings: dihydroethidium-loaded vessels from EC-SOD −/− mice; tempol 10^−4 M, PEG-SOD 100 units·ml^−1, catalase 300 units·ml^−1
Excerpt: (§1) Reactive oxygen spice (ROS) and endothelin-1 (ET-1) contribute to angiotensin-induced hypertension. We used isolated mesenteric resistance arteries (MRAs) from EC-SOD knockout (−/−) mice (n=10) and EC-SOD wild type (+/+) mice (n=10), as a model to investigate the hypothesis that microvascular ET-1 and superoxide anion (O2.^−) interact to enhance contractility. Tension and O2.^− were quantitated in real time in dihydroethidium (DHE)-loaded MRAs in a myograph equipped with a dual-emission photon detection fluorescence system to measure ethidium (Eth): DHE ratio (E/D) as a direct readout of O2.^− activity. […] PEG-SOD normalized augmented ET-1 contraction (64±4% vs 71±3%; p=ns) and prevent an increase in E/D ratio in MRAs from −/− (0.6±0.5 vs 0.5±0.8, p=ns). In summary, ET-1 generates microvascular O2.^− that enhances its vasoconstrictive action.
A current study contrasts the responses to endothelin-1 (ET-1) in mesenteric resistance vessels from EC-SOD (−/−) and (+/+) mice. […] Parallel studies of vascular superoxide in dihydroethidium-loaded vessels show enhanced conversion to ethidium, indicating enhanced superoxide formation, in vessels from EC-SOD −/−mice. […] We conclude that in the model system of SOD deficiency caused by gene deletion of EC-SOD in the mouse, tempol can correct enhanced contractions and enhanced oxidative stress. It is thereby envisioned as being effective in preventing hypertension and cardiovascular disease.

[6] = test system: mesenteric resistance arteries (MRAs) from EC-SOD −/− and +/+ mice; test: Contraction of isolated mesenteric resistance arteries (myograph); settings: vessels from EC-SOD −/− mice; bath addition, 20 min; tempol 10^−4 M, PEG-SOD 100 units·ml^−1, catalase 300 units·ml^−1
Description: FIG. 19: Responses of mouse isolated mesenteric resistance vessles to endothelin-1: comparison of EC-SOD +/+ with −/−. (A) Contraction to endothelin-1, (B) Superoxide production with endothelin-1. Mean±SEM values (n=6-8 per group). Response to endothelin-1 in vessels incubated for 20 min with vehicle, tempol (10^−4 M), PEG-SOD (100 units·ml^−1), and catalase (300 units·ml^−1). Compared to vehicle, ***, p<0.005.
as §1

cell membranes = settings: cited from earlier work
[7] = measured previously in the literature; cited from earlier work

| SMILES | Maximum inhibition, % [1] [%] | O2−. generated by a xanthine-xanthine oxidase reaction extinguished [1] | acute change in MAP and HR [2] | ED50, μmol/kg [3] | acetylcholine-induced vasodilation (EDRF) response [4] | effect on enhanced superoxide formation with ET-1 [5] | maximal reduction in MAP (comparison between compounds) ([2]; graded intravenous doses) | time to maximum reductions in MAP and HR ([2]; graded intravenous doses) [min] | effect on enhanced contractions to ET-1 [6] | permeation of cells (cell membranes) | redox midpoint potential E1/2 [7] [mV] |
| --- | --- | --- | --- | --- | --- | --- | --- | --- | --- | --- | --- |
| CC1(C)CC(C(=O)O)C(C)(C)N1[O] (centres unmarked) [Compound 3-CTPY, 3-carboxy-peroxyl] | 15 ± 3 | significantly lower fraction | ineffective; also recorded: did not | ∞† | – | – | – | – | – | – | – |
| CC1(C)CC(O)CC(C)(C)N1[O] [T, 4-hydroxy-2,2,6,6-tetramethyl-1 piperidinyloxy] | 92 ± 1 | 92% | decreased MAP and HR acutely | – | restored to normal | normalized | greater maximal fall in MAP with T than CAT-1; also recorded: greatest reductions in MAP | ≤ 1 | normalized | permeates cell membranes freely | 800 |
